Tests used:
Assay type in all cases: biochemical
[1] = molecular target: Pim-2 (Homo sapiens (Human), UniProt Q9P1W9); assay: Pim-2 kinase assay; conditions: 1 mM ATP; read-out: Pim2 IC50
Procedure: Pim-2 kinase assay-20 μL reactions were run in white 384 well polystyrene plates dotted with 0.8 μL compound/DMSO in the assay buffer (50 mM Tris, pH 7.5, 0.01% Tween-20, 5 mM MgCl2, 0.01% BSA, 5 mM DTT), containing 0.05 μM Fluorescein-labeled CREBtide peptide substrate (Invitrogen PV3508), 1 mM ATP, and 1 nM enzyme (Invitrogen PV3649) for 2 h at 25° C. Reactions were stopped by addition of 10 μL TR-FRET Dilution Buffer (Invitrogen PV3574) with 30 mM EDTA and 1.5 nM LanthaScreen Tb-CREB pSer133 antibody (Invitrogen PV3566). After 30 min. incubation at room temperature, plates were read on a PHERAstar FS plate reader (BMG Labtech).
Although the above in vitro assays are conducted at 1 mM ATP compounds can also be evaluated for potency and in vitro activity against PIM targets utilizing Km conditions, where the concentration of ATP is set to the Km value and the assay is more sensitive to PIM inhibition activity.

[2] = molecular target: Pim-1 (Homo sapiens (Human), UniProt P11309); assay: Pim-1 kinase assay; conditions: 1 mM ATP; read-out: Pim1 IC50
Procedure: Supplementation of the STOP buffer with beads and stopping the reactions were done under reduced light. Prior to the stopping reactions STOP buffer with beads was pre-incubated for 1 h in the dark at room temperature. After stopping the reactions, plates were incubated for 1 h in the dark at room temperature before reading on a PHERAstar FS plate reader (BMG Labtech) under reduced light.

[3] = molecular target: Pim-3 (Homo sapiens (Human), UniProt Q86V86); assay: Pim-3 kinase assay; conditions: 1 mM ATP; read-out: Pim3 IC50
Procedure: Pim-1 and Pim-3 kinase assays-20 μL reactions were run in white 384 well polystyrene plates dotted with 0.8 μL compound/DMSO in the assay buffer (50 mM Tris, pH 7.5, 0.01% Tween-20, 5 mM MgCl2, 0.01% BSA, 5 mM DTT), containing 0.05 μM Biotin-labeled BAD peptide substrate (AnaSpec 62269), 1 mM ATP, and […] (Pim-1, Invitrogen PV3503) or […] (Pim-3, Millipore 14-738) enzyme for 1 h at 25° C. Reactions were stopped by addition of 10 μL STOP Buffer (150 mM Tris, pH=7.5, 150 mM NaCl, 75 mM EDTA, 0.01% Tween-20, 0.3% BSA) supplemented with Phospho-Bad (Ser112) Antibody (Cell Signaling 9291) diluted 666-fold, and Streptavidin donor beads (PerkinElmer 6760002) along with Protein-A acceptor beads (PerkinElmer 6760137) at 15 μg/mL each. Supplementation of the STOP buffer with beads and stopping the reactions were done under reduced light. Prior to the stopping reactions STOP buffer with beads was pre-incubated for 1 h in the dark at room temperature. After stopping the reactions, plates were incubated for 1 h in the dark at room temperature before reading on a PHERAstar FS plate reader (BMG Labtech) under reduced light.

Chain of Pim-1 (P11309 whole entry): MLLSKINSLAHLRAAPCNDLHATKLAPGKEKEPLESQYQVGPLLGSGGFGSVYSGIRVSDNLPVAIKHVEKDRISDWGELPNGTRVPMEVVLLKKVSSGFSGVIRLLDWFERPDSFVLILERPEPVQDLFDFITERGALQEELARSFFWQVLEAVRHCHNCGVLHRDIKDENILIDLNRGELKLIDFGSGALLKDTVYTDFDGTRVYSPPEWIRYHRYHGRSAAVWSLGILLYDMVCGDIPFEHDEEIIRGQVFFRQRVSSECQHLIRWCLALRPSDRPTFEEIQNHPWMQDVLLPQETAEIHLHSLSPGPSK
Chain of Pim-2 (Q9P1W9 whole entry): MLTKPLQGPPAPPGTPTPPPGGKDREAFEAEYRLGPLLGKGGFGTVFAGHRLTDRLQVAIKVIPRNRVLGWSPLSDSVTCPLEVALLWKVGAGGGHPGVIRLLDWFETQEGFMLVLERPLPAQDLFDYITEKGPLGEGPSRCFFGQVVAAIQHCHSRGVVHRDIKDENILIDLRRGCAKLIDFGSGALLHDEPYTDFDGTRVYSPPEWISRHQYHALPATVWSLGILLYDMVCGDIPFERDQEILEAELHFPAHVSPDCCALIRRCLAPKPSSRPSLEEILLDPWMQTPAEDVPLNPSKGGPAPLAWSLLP

SMILES: COc1ccc(F)c(-c2nc(C(=O)Nc3cnc4c(c3N3CCC[C@H](N)C3)CCC4O)c(N)s2)c1F (single isomer, unassigned) [53 (Diastereoisomer 2)]
- IC50 [1]: ≤ 0.1 µM
- IC50 [2]: ≤ 0.1 µM
- IC50 [3]: ≤ 0.1 µM

SMILES: COc1ccc(F)c(-c2nc(C(=O)Nc3cnc4c(c3N3C[C@H](C)C[C@H](N)C3)CCC4O)c(N)s2)c1F (single isomer, unassigned) [54 (Diastereoisomer 1)]
- IC50 [1]: ≤ 0.1 µM
- IC50 [2]: ≤ 0.1 µM
- IC50 [3]: ≤ 0.1 µM

SMILES: COc1ccc(F)c(-c2nc(C(=O)Nc3cnc4c(c3N3C[C@H](C)C[C@H](N)C3)CCC4O)c(N)s2)c1F (single isomer, unassigned) [54 (Diastereoisomer 2)]
- IC50 [1]: ≤ 0.1 µM
- IC50 [2]: ≤ 0.1 µM
- IC50 [3]: ≤ 0.1 µM

SMILES: COc1ccc(F)c(-c2nc(C(=O)Nc3cnc4c(c3N3CCC[C@H](N)C3)CCC4O)ccc2F)c1F (single isomer, unassigned) [55 (Diastereoisomer 1)]
- IC50 [1]: 0.1 to 1 µM
- IC50 [2]: ≤ 0.1 µM
- IC50 [3]: ≤ 0.1 µM

SMILES: COc1ccc(F)c(-c2nc(C(=O)Nc3cnc4c(c3N3CCC[C@H](N)C3)CCC4O)ccc2F)c1F (single isomer, unassigned) [55 (Diastereoisomer 2)]
- IC50 [1]: ≤ 0.1 µM
- IC50 [2]: ≤ 0.1 µM
- IC50 [3]: ≤ 0.1 µM

SMILES: COc1ccc(F)c(-c2nc(C(=O)Nc3cnc4c(c3N3C[C@H](C)C[C@H](N)C3)CCC4O)ccc2F)c1F (single isomer, unassigned) [56 (Diastereoisomer 1)]
- IC50 [1]: ≤ 0.1 µM
- IC50 [2]: ≤ 0.1 µM
- IC50 [3]: ≤ 0.1 µM

SMILES: COc1ccc(F)c(-c2nc(C(=O)Nc3cnc4c(c3N3C[C@H](C)C[C@H](N)C3)CCC4O)ccc2F)c1F (single isomer, unassigned) [56 (Diastereoisomer 2)]
- IC50 [1]: ≤ 0.1 µM
- IC50 [2]: ≤ 0.1 µM
- IC50 [3]: ≤ 0.1 µM

SMILES: CSc1cc(F)c(-c2nc(C(=O)Nc3cnc4c(c3N3CCC[C@H](N)C3)CCC4O)ccc2F)c(F)c1 (single isomer, unassigned) [58 (Diastereoisomer 1)]
- IC50 [1]: 0.1 to 1 µM
- IC50 [2]: ≤ 0.1 µM
- IC50 [3]: ≤ 0.1 µM

SMILES: CSc1cc(F)c(-c2nc(C(=O)Nc3cnc4c(c3N3CCC[C@H](N)C3)CCC4O)ccc2F)c(F)c1 (single isomer, unassigned) [58 (Diastereoisomer 2)]
- IC50 [1]: 0.1 to 1 µM
- IC50 [2]: ≤ 0.1 µM
- IC50 [3]: ≤ 0.1 µM

SMILES: C[S+]([O-])c1cc(F)c(-c2nc(C(=O)Nc3cnc4c(c3N3CCC[C@H](N)C3)CCC4O)ccc2F)c(F)c1 (single isomer, unassigned) [59 (Diastereoisomer 1)]
- IC50 [1]: 0.1 to 1 µM
- IC50 [2]: ≤ 0.1 µM
- IC50 [3]: ≤ 0.1 µM

SMILES: C[S+]([O-])c1cc(F)c(-c2nc(C(=O)Nc3cnc4c(c3N3CCC[C@H](N)C3)CCC4O)ccc2F)c(F)c1 (single isomer, unassigned) [59 (Diastereoisomer 2)]
- IC50 [1]: 0.1 to 1 µM
- IC50 [2]: ≤ 0.1 µM
- IC50 [3]: ≤ 0.1 µM

SMILES: C[C@@H]1C[C@H](N)CN(c2c(NC(=O)c3ccc(F)c(-c4c(F)cc([S+](C)[O-])cc4F)n3)cnc3c2CCC3O)C1 (single isomer, unassigned) [60 (Diastereoisomer 1)]
- IC50 [1]: 0.1 to 1 µM
- IC50 [2]: ≤ 0.1 µM
- IC50 [3]: ≤ 0.1 µM

SMILES: C[C@@H]1C[C@H](N)CN(c2c(NC(=O)c3ccc(F)c(-c4c(F)cc([S+](C)[O-])cc4F)n3)cnc3c2CCC3O)C1 (single isomer, unassigned) [60 (Diastereoisomer 2)]
- IC50 [1]: 0.1 to 1 µM
- IC50 [2]: ≤ 0.1 µM
- IC50 [3]: ≤ 0.1 µM

SMILES: CS(=O)(=O)c1cc(F)c(-c2nc(C(=O)Nc3cnc4c(c3N3CCC[C@H](N)C3)CCC4O)ccc2F)c(F)c1 (single isomer, unassigned) [61 (Diastereoisomer 1)]
- IC50 [1]: > 2 µM
- IC50 [2]: ≤ 0.1 µM
- IC50 [3]: > 0.04 µM

SMILES: CS(=O)(=O)c1cc(F)c(-c2nc(C(=O)Nc3cnc4c(c3N3CCC[C@H](N)C3)CCC4O)ccc2F)c(F)c1 (single isomer, unassigned) [61 (Diastereoisomer 2)]
- IC50 [1]: 0.1 to 1 µM
- IC50 [2]: ≤ 0.1 µM
- IC50 [3]: ≤ 0.1 µM

SMILES: Nc1ncc(-c2c(F)cccc2F)nc1C(=O)Nc1cnc2c(c1N1CCC[C@H](N)C1)CCC2O (single isomer, unassigned) [62 (Diastereoisomer 1)]
- IC50 [1]: 0.1 to 1 µM
- IC50 [2]: ≤ 0.1 µM
- IC50 [3]: ≤ 0.1 µM

SMILES: Nc1ncc(-c2c(F)cccc2F)nc1C(=O)Nc1cnc2c(c1N1CCC[C@H](N)C1)CCC2O (single isomer, unassigned) [62 (Diastereoisomer 2)]
- IC50 [1]: 0.1 to 1 µM
- IC50 [2]: ≤ 0.1 µM
- IC50 [3]: ≤ 0.1 µM

SMILES: C[C@H]1CN(c2c(NC(=O)c3ccc(F)c(-c4c(F)cccc4F)n3)cnc3c2CCC3O)C[C@@H](N)C1(C)O (single isomer, unassigned) [63 (Diastereoisomer 1)]
- IC50 [1]: ≤ 0.1 µM
- IC50 [2]: ≤ 0.1 µM
- IC50 [3]: ≤ 0.1 µM

SMILES: C[C@H]1CN(c2c(NC(=O)c3ccc(F)c(-c4c(F)cccc4F)n3)cnc3c2CCC3O)C[C@@H](N)C1(C)O (single isomer, unassigned) [63 (Diastereoisomer 2)]
- IC50 [1]: ≤ 0.1 µM
- IC50 [2]: ≤ 0.1 µM
- IC50 [3]: ≤ 0.1 µM

SMILES: C[C@H]1CN(c2c(NC(=O)c3ccc(F)c(-c4c(F)cccc4F)n3)cnc3c2CCC3O)C[C@@H](N)C1(C)O (single isomer, unassigned) [63 (Diastereoisomer 3)]
- IC50 [1]: ≤ 0.1 µM
- IC50 [2]: ≤ 0.1 µM
- IC50 [3]: ≤ 0.1 µM

SMILES: C[C@H]1CN(c2c(NC(=O)c3ccc(F)c(-c4c(F)cccc4F)n3)cnc3c2CCC3O)C[C@@H](N)C1(C)O (single isomer, unassigned) [63 (Diastereoisomer 4)]
- IC50 [1]: ≤ 0.1 µM
- IC50 [2]: ≤ 0.1 µM
- IC50 [3]: ≤ 0.1 µM

SMILES: COCc1cc(F)c(-c2nc(C(=O)Nc3cnc4c(c3N3C[C@H](C)C[C@H](N)C3)CCC4O)ccc2F)c(F)c1 (single isomer, unassigned) [64 (Diastereoisomer 1)]
- IC50 [1]: ≤ 0.1 µM
- IC50 [2]: ≤ 0.1 µM
- IC50 [3]: ≤ 0.1 µM

SMILES: COCc1cc(F)c(-c2nc(C(=O)Nc3cnc4c(c3N3C[C@H](C)C[C@H](N)C3)CCC4O)ccc2F)c(F)c1 (single isomer, unassigned) [64 (Diastereoisomer 2)]
- IC50 [1]: ≤ 0.1 µM
- IC50 [2]: ≤ 0.1 µM
- IC50 [3]: ≤ 0.1 µM

SMILES: COCc1cc(F)c(-c2nc(C(=O)Nc3cnc4c(c3N3C[C@@H](N)[C@H](O)[C@@H](C)C3)CCC4O)ccc2F)c(F)c1 (single isomer, unassigned) [66 (Diastereoisomer 1)]
- IC50 [1]: ≤ 0.1 µM
- IC50 [2]: ≤ 0.1 µM
- IC50 [3]: ≤ 0.1 µM

SMILES: COCc1cc(F)c(-c2nc(C(=O)Nc3cnc4c(c3N3C[C@@H](N)[C@H](O)[C@@H](C)C3)CCC4O)ccc2F)c(F)c1 (single isomer, unassigned) [66 (Diastereoisomer 2)]
- IC50 [1]: ≤ 0.1 µM
- IC50 [2]: ≤ 0.1 µM
- IC50 [3]: ≤ 0.1 µM

SMILES: C[C@@H]1C[C@H](N)CN(c2c(NC(=O)c3ccc(F)c(-c4c(F)cc(C(C)(C)O)cc4F)n3)cnc3c2CCC3O)C1 (single isomer, unassigned) [67 (Diastereoisomer 1)]
- IC50 [1]: ≤ 0.1 µM
- IC50 [2]: ≤ 0.1 µM
- IC50 [3]: ≤ 0.1 µM

SMILES: C[C@@H]1C[C@H](N)CN(c2c(NC(=O)c3ccc(F)c(-c4c(F)cc(C(C)(C)O)cc4F)n3)cnc3c2CCC3O)C1 (single isomer, unassigned) [67 (Diastereoisomer 2)]
- IC50 [1]: ≤ 0.1 µM
- IC50 [2]: ≤ 0.1 µM
- IC50 [3]: ≤ 0.1 µM

SMILES: N[C@@H]1CN(c2c(NC(=O)c3ccc(F)c(-c4c(F)cccc4F)n3)cnc3c2CCC3O)C[C@H](C2CC2)[C@H]1O (single isomer, unassigned) [68 (Diastereoisomer 1)]
- IC50 [1]: ≤ 0.1 µM
- IC50 [2]: ≤ 0.1 µM
- IC50 [3]: ≤ 0.1 µM

SMILES: N[C@@H]1CN(c2c(NC(=O)c3ccc(F)c(-c4c(F)cccc4F)n3)cnc3c2CCC3O)C[C@H](C2CC2)[C@H]1O (single isomer, unassigned) [68 (Diastereoisomer 2)]
- IC50 [1]: ≤ 0.1 µM
- IC50 [2]: ≤ 0.1 µM
- IC50 [3]: ≤ 0.1 µM

SMILES: C[C@@H]1C[C@H](N)CN(c2c(NC(=O)c3ccc(F)c(-c4c(F)cc(OC5CCCOC5)cc4F)n3)cnc3c2CCC3O)C1 (single isomer, unassigned) [70 (Diastereoisomer 1)]
- IC50 [1]: ≤ 0.1 µM
- IC50 [2]: ≤ 0.1 µM
- IC50 [3]: ≤ 0.1 µM
